Molecular target: T1, JAK3 (recombinant human kinase domain; h-jak3(810-1124)) (Homo sapiens, UniProt P52333)
T1 construct: h-jak3(810- 1124)-sf9-c; made in house; host or cells: Sf9 insect cells
Experiment: Determination of IC50 of Janus Kinase (JAK) inhibition: JAK3, radioactive end-point assay with 33P-ATP
Format: biochemical
Conditions: JAK3 kinase domain; ATP 1.5 uM, peptide 50 uM, 20 minutes, room temperature, 10% DMSO; read-out: Ic50 h-jak3(810-1124)-sf9-c:no additive
Description: Determination of IC50 of Janus Kinase (JAK) Inhibition:
Enzymes and peptide substrate used are described below: • JAK1: Recombinant human kinase domain from Invitrogen (Cat # PV4774) • JAK3: Recombinant human kinase domain from Millipore (Cat #14-629) or prepared. • JAK2: Recombinant human kinase domain from Millipore (Cat #14-640) • Substrate: N-terminally biotinylated 14-mer peptide derived from activation loop of JAK1 with sequence of the peptide substrate: Biotin-[sequence]
Assay Conditions Used are Described Below: • Assay Buffer: JAK Kinase Buffer: 50 mM Hepes [pH 7.2], 10 mM MgCl2, 1 mM DTT, • 1 mg/ml BSA. The assay is carried out in this buffer. • Assay Format The kinase activity of all three JAK kinases is measured using a radioactive, end-point assay and with trace amounts of ^33P-ATP. The assays are carried out in 96-well polypropylene plates.
All concentrations are final in the reaction mixture and all incubations are carried at room temperature. […] Final concentration of DMSO in the reaction is 10%. • 2) Compounds are preincubated with enzyme (0.5 nM JAK3 (commercially available), 0.2 nM JAK3 (prepared), 1 nM JAK2, 5 nM JAK1) for 10 minutes. • 3) Reactions are initiated by the addition of a cocktail of the two substrates (ATP and peptide premixed in the JAK Kinase Buffer). In the JAK2/JAK3 assays, ATP and the peptide are used at concentrations of 1.5 uM and 50 uM, respectively. JAK1 assay is carried out at an ATP concentration of 10 uM and a peptide concentration of 50 uM. • 4) The duration of the assay for JAK2 and JAK3 is 20 minutes. JAK1 assay is carried out for 40 minutes. With all three enzymes, reactions are terminated by the addition of 0.5M EDTA to a final concentration of 100 mM. • 5) 25 ul of terminated reactions are transferred to 150 ul of a 7.5% (v/v) slurry of streptavidin-coated sepharose beads in MgCl2- and CaCl2-free 1× Phosphate Buffered Saline containing 50 mM of EDTA in 96-well, 1.2 um MultiScreen-BV filter plates. • 6) After a 30-minute incubation, the beads are washed under vacuum with the following buffers: • a. 3 to 4 washes with 200 ul of 2M NaCl. • b. 3 to 4 washes with 200 ul of 2M NaCl plus 1% (v/v) phosphoric acid. • c. 1 wash with water. • 7) Washed plates are dried in a 60° C. oven for between 1 to 2 hours. • 8) 70 ul of Microscint 20 scintillation fluid is added to each well of filter plates and after at least 30 minutes of incubation, radioactive counts are measured in a Perkin-Elmer microplate scintillation counter.

T1 sequence (P52333 810-1124): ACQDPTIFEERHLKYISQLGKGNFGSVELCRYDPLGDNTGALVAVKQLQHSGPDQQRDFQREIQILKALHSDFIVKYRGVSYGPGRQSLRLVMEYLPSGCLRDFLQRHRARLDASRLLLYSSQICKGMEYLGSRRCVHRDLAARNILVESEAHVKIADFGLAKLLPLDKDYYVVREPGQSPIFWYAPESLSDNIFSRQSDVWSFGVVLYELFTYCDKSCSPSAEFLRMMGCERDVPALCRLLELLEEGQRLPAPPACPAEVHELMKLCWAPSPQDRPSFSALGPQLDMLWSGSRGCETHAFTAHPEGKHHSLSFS

IC50 [nM] | SMILES
0.22 | CC(Cn1ccnc1)NC(=O)c1ccc(-c2cnc3[nH]cc(C(=O)N[C@@H](C)C(C)(C)C)c3n2)s1 (stereo partly drawn) [Example I-174, 2-[5-(2-Imidazol-1-yl-1-methyl-ethylcarbamoyl)-thiophen-2-yl]-5H-pyrrolo[2,3-b]pyrazine-7-carboxylic acid ((S)-1,2,2-trimethyl-propyl)-amide]
229 | CC(C)NC(=O)c1c[nH]c2ncc(Oc3ccc4[nH]ccc4c3)nc12 [Example I-277, 2-(1H-Indol-5-yloxy)-5H-pyrrolo[2,3-b]pyrazine-7-carboxylic acid isopropylamide]
0.32 | C[C@H](NC(=O)c1c[nH]c2ncc(-c3ccc(C(=O)NCc4ccc(F)cc4)s3)nc12)C(C)(C)C [Example I-185, 2-[5-(4-Fluoro-benzylcarbamoyl)-thiophen-2-yl]-5H-pyrrolo[2,3-b]pyrazine-7-carboxylic acid ((S)-1,2,2-trimethyl-propyl)-amide]
409 | CC(C)(CO)CNC(=O)c1c[nH]c2ncc(N3CCC(C)(C)C3)nc12 [Example I-14, 2-(3,3-Dimethyl-pyrrolidin-1-yl)-5H-pyrrolo[2,3-b]pyrazine-7-carboxylic acid (3-hydroxy-2,2-dimethyl-propyl)-amide]
0.55 | C[C@H](NC(=O)c1c[nH]c2ncc(-c3ccc(C(=O)N[C@H]4C[C@@H]4c4ccccc4)s3)nc12)C(C)(C)C [Example I-191, 2-[5-((1S,2R)-2-Phenyl-cyclopropyl-carbamoyl)-thiophen-2-yl]-5H-pyrrolo[2,3-b]pyrazine-7-carboxylic acid ((S)-1,2,2-trimethyl-propyl)-amide]
659 | C[C@@H](NC(=O)c1c[nH]c2ncc(Oc3ccccc3)nc12)C(C)(C)C [Example I-130, 2-Phenoxy-5H-pyrrolo[2,3-b]pyrazine-7-carboxylic acid ((R)-1,2,2-trimethyl-propyl)-amide]
50 | CC(C)NC(=O)c1c[nH]c2ncc(Oc3ccc4c(c3)[C@H](NC(=O)C3CC3)CC4)nc12 [Example I-284, 2-[(R)-3-(Cyclopropane-carbonyl-amino)-indan-5-yloxy]-5H-pyrrolo[2,3-b]pyrazine-7-carboxylic acid isopropylamide]
0.32 | Cc1ccc(CNC(=O)c2ccc(-c3cnc4[nH]cc(C(=O)N[C@@H](C)C(C)(C)C)c4n3)s2)cc1 [Example I-184, 2-[5-(4-Methyl-benzylcarbamoyl)-thiophen-2-yl]-5H-pyrrolo[2,3-b]pyrazine-7-carboxylic acid ((S)-1,2,2-trimethyl-propyl)-amide]
1530 | CCNC(=O)c1c[nH]c2ncc(Oc3ccc4c(c3)CCCC4)nc12 [Example I-260, 2-(5,6,7,8-Tetrahydro-naphthalen-2-yloxy)-5H-pyrrolo[2,3-b]pyrazine-7-carboxylic acid ethylamide]
0.32 | C[C@H](NC(=O)c1c[nH]c2ncc(-c3ccc(C(=O)N4C5CCC4CC5)s3)nc12)C(C)(C)C [Example I-177, 2-[5-(7-Aza-bicyclo[2.2.1]heptane-7-carbonyl)-thiophen-2-yl]-5H-pyrrolo[2,3-b]pyrazine-7-carboxylic acid ((S)-1,2,2-trimethyl-propyl)-amide]
6710 | CCNC(=O)c1c[nH]c2ncc(Oc3cccc4c3CCCC4)nc12 [Example I-259]
0.11 | C[C@H](NC(=O)c1c[nH]c2ncc(-c3ccc(C(=O)N4CC5(COC5)C4)s3)nc12)C(C)(C)C [Example I-217, 2-[5-(2-Oxa-6-aza-spiro[3.3]heptane-6-carbonyl)-thiophen-2-yl]-5H-pyrrolo[2,3-b]pyrazine-7-carboxylic acid ((S)-1,2,2-trimethyl-propyl)-amide]
493 | N#CCCCNC(=O)c1c[nH]c2ncc(C3CC3)nc12 [Example I-33, 2-Cyclopropyl-5H-pyrrolo[2,3-b]pyrazine-7-carboxylic acid (3-cyano-propyl)-amide]
59.5 | CC[C@H](C)NC(=O)c1c[nH]c2ncc(Oc3ccccc3)nc12 [Example I-121, 2-Phenoxy-5H-pyrrolo[2,3-b]pyrazine-7-carboxylic acid ((S)-sec-butyl)-amide]
2170 | CC(C)NC(=O)c1c[nH]c2ncc(Oc3ccccc3OC(F)(F)F)nc12 [Example I-253, 2-(2-Trifluoromethoxy-phenoxy)-5H-pyrrolo[2,3-b]pyrazine-7-carboxylic acid isopropylamide]
302 | CC(C)c1cnc2[nH]cc(C(=O)N[C@@H](C)C(C)(C)O)c2n1 [Example I-5, 2-Isopropyl-5H-pyrrolo[2,3-b]pyrazine-7-carboxylic acid ((S)-2-hydroxy-1,2-dimethyl-propyl)-amide]
155 | CC(C)NC(=O)c1c[nH]c2ncc(Oc3ccc4c(c3)[C@H](NS(C)(=O)=O)CC4)nc12 [Example I-268, 2-((R)-3-Methanesulfonylamino-indan-5-yloxy)-5H-pyrrolo[2,3-b]pyrazine-7-carboxylic acid isopropylamide]
0.46 | CC(Cc1ccccn1)NC(=O)c1ccc(-c2cnc3[nH]cc(C(=O)N[C@@H](C)C(C)(C)C)c3n2)s1 (stereo partly drawn) [Example I-176, 2-[5-(1-Methyl-2-pyridin-2-yl-ethylcarbamoyl)-thiophen-2-yl]-5H-pyrrolo[2,3-b]pyrazine-7-carboxylic acid ((S)-1,2,2-trimethyl-propyl)-amide]
7.25 | C[C@@H](NC(=O)c1c[nH]c2ncc(-c3cccs3)nc12)C(C)(C)O [Example I-103, 2-Thiophen-2-yl-5H-pyrrolo[2,3-b]pyrazine-7-carboxylic acid ((R)-2-hydroxy-1,2-dimethyl-propyl)-amide]
0.13 | C[C@H](NC(=O)c1c[nH]c2ncc(-c3ccc(C(=O)N4CC(CO)(CO)C4)s3)nc12)C(C)(C)C [Example I-218, 2-[5-(3,3-Bis-hydroxymethyl-azetidine-1-carbonyl)-thiophen-2-yl]-5H-pyrrolo[2,3-b]pyrazine-7-carboxylic acid ((S)-1,2,2-trimethyl-propyl)-amide]
15 | C[C@@H](NC(=O)c1c[nH]c2ncc(C3CC3)nc12)C1CCCCC1 [Example I-60, 2-Cyclopropyl-5H-pyrrolo[2,3-b]pyrazine-7-carboxylic acid ((R)-1-cyclohexyl-ethyl)-amide]
2740 | CCNC(=O)c1c[nH]c2ncc(Oc3ccccc3C)nc12 [Example I-257, 2-o-Tolyloxy-5H-pyrrolo[2,3-b]pyrazine-7-carboxylic acid ethylamide]
0.32 | CC(=O)NC1CCN(C(=O)c2ccc(-c3cnc4[nH]cc(C(=O)N[C@@H](C)C(C)(C)C)c4n3)s2)CC1 [Example I-183, 2-[5-[4-Acetylamino-piperidine-1-carbonyl)-thiophen-2-yl]-5H-pyrrolo[2,3-b]pyrazine-7-carboxylic acid ((S)-1,2,2-trimethyl-propyl)-amide]
10.6 | C[C@H](NC(=O)c1c[nH]c2ncc(-c3ccc(C(=O)NCc4cccc(C#N)c4)s3)nc12)C(C)(C)C [Example I-227, 2-[5-(3-Cyano-benzylcarbamoyl)-thiophen-2-yl]-5H-pyrrolo[2,3-b]pyrazine-7-carboxylic acid ((S)-1,2,2-trimethyl-propyl)-amide]
54.3 | CC[C@H](NC(=O)c1c[nH]c2ncc(C3CC3)nc12)C(C)(C)O [Example I-29, 2-Cyclopropyl-5H-pyrrolo[2,3-b]pyrazine-7-carboxylic acid ((S)-1-ethyl-2-hydroxy-2-methyl-propyl)-amide]
